This passage reports EC50 results from patent US9920040B2, “GPR40 agonists for the treatment of type II diabetes” (Janssen Pharmaceutica NV, priority 2015, dated 2018).

Several values for one entry are separate records, joined by “and”; a condition that tells them apart may be missing. Equal entries are not always repeated.

T1 sequence (O14842 whole entry): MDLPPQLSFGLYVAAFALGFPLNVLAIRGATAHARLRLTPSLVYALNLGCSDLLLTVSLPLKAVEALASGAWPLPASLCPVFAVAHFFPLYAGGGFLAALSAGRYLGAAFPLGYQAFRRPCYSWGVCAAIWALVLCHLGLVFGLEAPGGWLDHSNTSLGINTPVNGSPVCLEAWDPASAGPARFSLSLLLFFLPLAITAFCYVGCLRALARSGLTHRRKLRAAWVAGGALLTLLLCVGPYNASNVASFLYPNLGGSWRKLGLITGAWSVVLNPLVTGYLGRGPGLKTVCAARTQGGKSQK

This assay addresses T1, human GPR40 (Homo sapiens, UniProt O14842).
T1 construct: expressed in transfected cells
As to the kind of experiment: GPR40 calcium flux assay, human GPR40. Format: cell-based. To be noted: transfected HEK293 cells stably expressing human GPR40; multiple values = repeated testing; read-out: hGPR40 Ca^2+ Assay EC50. Here is the method: Compounds were tested in a calcium flux assay using transfected HEK293 cells stably expressing either human GPR40 or rat GPR40. Human GPR40 expressing cells were cultured in DMEM-High Glucose media supplemented with 10% fetal bovine serum, 1×L-Glutamine, 1×Penicillin/Streptomycin and 500 μg/mL G418. Rat GPR40 expressing cells were cultured in DMEM-High Glucose media supplemented with 10% fetal bovine serum and 1 μg/mL puromycin. Cells were plated into poly-D-lysine coated 384-well plates and cultured overnight in a 37° C. humidified tissue culture incubator under 5% CO2/[…] atmosphere. On the day of the experiment, the culture media was replaced with assay buffer (HBSS, 20 mM HEPES, 0.1% BSA) and the cells incubated at 37° C. for 1 h. Calcium-sensitive fluorescent dye (Fluo 8 No-Wash Calcium Dye, ABD Bioquest) was then added and the cells incubated for another 30 min at 37° C. followed by 15 min at room temperature while protected from the light. The cell plate and a plate of diluted compounds of Formula (I) were loaded into a fluorescent plate reader that added compounds onto the cells while measuring the fluorescence intensity of each well. The plate reader recorded fluorescence intensity at 1 second intervals for 8 min and provided the data for analysis in an Excel format. EC50 values were calculated using Prism (GraphPad) software.
For the molecule `COc1ccc(F)c(-c2scc(COc3cccc([C@@H](CC(=O)O)C4CC4)c3)c2C2=CCCC2(C)C)c1` [Cpd 13, (3S)-3-cyclopropyl-3-[3-[[4-(5,5-dimethylcyclopenten-1-yl)-5-(2-fluoro-5-methoxy-phenyl)-3-thienyl]methoxy]phenyl]propanoic acid], the EC50 is 53 nM and 51 nM and 22 nM and 13 nM and 87 nM and 71 nM.

As to `COc1cc(-c2onc(COc3cccc([C@@H](CC(=O)O)C4CC4)c3)c2CC(C)C)c(F)cn1` [Cpd 12, (3S)-3-cyclopropyl-3-[3-[[5-(5-fluoro-2-methoxy-4-pyridyl)-4-isobutyl-isoxazol-3-yl]methoxy]phenyl]propanoic acid], the EC50 turned out to be 1270 nM.

Take `COc1ccccc1-c1scc(COc2cccc([C@@H](CC(=O)O)C3CC3)c2)c1C1=CCCC1(C)C` [Cpd 22, (3S)-3-cyclopropyl-3-[3-[[4-(5,5-dimethylcyclopenten-1-yl)-5-(2-methoxyphenyl)-3-thienyl]methoxy]phenyl]propanoic acid]: the 50% effective concentration (EC50) is 47 nM and 41 nM.

In the case of `COc1ccc(F)c(-c2onc(COc3cccc([C@@H](CC(=O)O)C4CC4)c3)c2OC(C)C)c1` [Cpd 42, (3S)-3-cyclopropyl-3-[3-[[5-(2-fluoro-5-methoxy-phenyl)-4-isopropoxy-isoxazol-3-yl]methoxy]phenyl]propanoic acid], the EC50 was 19 nM and 15 nM.

Take `COc1ccc(F)c(-c2onc(COc3cccc([C@@H](CC(=O)O)C4CC4)c3)c2-c2ccc(C)s2)c1` [Cpd 32, (3S)-3-cyclopropyl-3-[3-[[5-(2-fluoro-5-methoxy-phenyl)-4-(5-methyl-2-thienyl)isoxazol-3-yl]methoxy]phenyl]propanoic acid]: the concentration for a half-maximal effect (EC50) is 31 nM and 27 nM.

In the case of `COc1cc(-c2onc(COc3cccc([C@@H](CC(=O)O)C4CC4)c3)c2C=C(C)C)c(F)cn1` [Cpd 52, (3S)-3-cyclopropyl-3-[3-[[5-(5-fluoro-2-methoxy-4-pyridyl)-4-(2-methylprop-1-enyl)isoxazol-3-yl]methoxy]phenyl]propanoic acid], the concentration for a half-maximal effect (EC50) is 51 nM and 45 nM.

Consider `COc1cc(-c2scc(COc3cccc([C@@H](CC(=O)O)C4CC4)c3)c2C2=CCCC2(C)C)ccn1` [Cpd 31, (3S)-3-cyclopropyl-3-[3-[[4-(5,5-dimethylcyclopenten-1-yl)-5-(2-methoxy-4-pyridyl)-3-thienyl]methoxy]phenyl]propanoic acid], for which the EC50 was 258 nM and 162 nM.

Turning to `COc1ccc(F)c(-c2onc(COc3cccc([C@@H](CC(=O)O)C4CC4)c3)c2C=C(C)C)c1` [Cpd 36, (3S)-3-cyclopropyl-3-[3-[[5-(2-fluoro-5-methoxy-phenyl)-4-(2-methylprop-1-enyl)isoxazol-3-yl]methoxy]phenyl]propanoic acid], the EC50 is 30 nM and 26 nM.

Regarding `COc1ccc(F)c(-c2onc(COc3cccc([C@@H](CC(=O)O)C4CC4)c3)c2OC2CCCC2)c1` [Cpd 40, (3S)-3-[3-[[4-(cyclopentoxy)-5-(2-fluoro-5-methoxy-phenyl)isoxazol-3-yl]methoxy]phenyl]-3-cyclopropyl-propanoic acid], the EC50 was 8 nM and 7 nM.

Take `COc1ccc(F)c(-c2onc(COc3cccc([C@@H](CC(=O)O)C4CC4)c3)c2C2CC2)c1` [Cpd 37, (3S)-3-cyclopropyl-3-[3-[[4-cyclopropyl-5-(2-fluoro-5-methoxy-phenyl)isoxazol-3-yl]methoxy]phenyl]propanoic acid]: the EC50 was 65 nM and 55 nM.

Regarding `CC1(C)CCC=C1c1c(COc2cccc([C@@H](CC(=O)O)C3CC3)c2)csc1-c1cccc2[nH]ccc12` [Cpd 24, (3S)-3-cyclopropyl-3-[3-[[4-(5,5-dimethylcyclopenten-1-yl)-5-(1H-indol-4-yl)-3-thienyl]methoxy]phenyl]propanoic acid], the EC50 is 68 nM and 66 nM.

As for `CN(C)c1cccc(-c2scc(COc3cccc([C@@H](CC(=O)O)C4CC4)c3)c2C2=CCCC2(C)C)c1` [Cpd 17, (3S)-3-cyclopropyl-3-[3-[[5-[3-(dimethylamino)phenyl]-4-(5,5-dimethylcyclopenten-1-yl)-3-thienyl]methoxy]phenyl]propanoic acid], the half-maximal effective concentration (EC50) is 242 nM and 232 nM.

In the case of `COc1cc(OC)cc(-c2scc(COc3cccc([C@@H](CC(=O)O)C4CC4)c3)c2C2=CCCC2(C)C)c1` [Cpd 23, (3S)-3-cyclopropyl-3-[3-[[5-(3,5-dimethoxyphenyl)-4-(5,5-dimethylcyclopenten-1-yl)-3-thienyl]methoxy]phenyl]propanoic acid], the half-maximal effective concentration (EC50) is 16 nM and 15 nM.

Regarding `COc1ccc(F)c(-c2onc(COc3cccc([C@@H](CC(=O)O)C4CC4)c3)c2-c2ccccc2)c1` [Cpd 34, (3S)-3-cyclopropyl-3-[3-[[5-(2-fluoro-5-methoxy-phenyl)-4-phenyl-isoxazol-3-yl]methoxy]phenyl]propanoic acid], the EC50 was 168 nM and 140 nM.

As for `COc1ccc(F)c(-c2snc(COc3cccc([C@@H](CC(=O)O)C4CC4)c3)c2C2=CCCC2(C)C)c1` [Cpd 30, (3S)-3-cyclopropyl-3-[3-[[4-(5,5-dimethylcyclopenten-1-yl)-5-(2-fluoro-5-methoxy-phenyl)isothiazol-3-yl]methoxy]phenyl]propanoic acid], the EC50 is 32 nM and 27 nM.

In the case of `COc1ccc(F)c(-c2sc(Cl)c(COc3cccc([C@@H](CC(=O)O)C4CC4)c3)c2C(C)C(F)(F)F)c1` (stereo partly drawn) [Cpd 29, (3S)-3-[3-[[2-chloro-5-(2-fluoro-5-methoxy-phenyl)-4-(2,2,2-trifluoro-1-methyl-ethyl)-3-thienyl]methoxy]phenyl]-3-cyclopropyl-propanoic acid], the concentration for a half-maximal effect (EC50) was 320 nM and 211 nM.

With `COc1ccc(F)c(-c2onc(COc3cccc([C@@H](CC(=O)O)C4CC4)c3)c2OCC(C)C)c1` [Cpd 39, (3S)-3-cyclopropyl-3-[3-[[5-(2-fluoro-5-methoxy-phenyl)-4-isobutoxy-isoxazol-3-yl]methoxy]phenyl]propanoic acid], the EC50 is 5 nM and 4 nM.

Take `COc1cc(-c2onc(COc3cccc([C@@H](CC(=O)O)C4CC4)c3)c2OCC(C)C)c(F)cn1` [Cpd 47, (3S)-3-cyclopropyl-3-[3-[[5-(5-fluoro-2-methoxy-4-pyridyl)-4-isobutoxy-isoxazol-3-yl]methoxy]phenyl]propanoic acid]: the EC50 was 20 nM and 16 nM.

Turning to `COc1cccc(-c2scc(COc3cccc([C@@H](CC(=O)O)C4CC4)c3)c2C2=CCCC2(C)C)c1` [Cpd 26, (3S)-3-cyclopropyl-3-[3-[[4-(5,5-dimethylcyclopenten-1-yl)-5-(3-methoxyphenyl)-3-thienyl]methoxy]phenyl]propanoic acid], the EC50 was 26 nM and 24 nM.

As for `CC1(C)CCC=C1c1c(COc2cccc([C@@H](CC(=O)O)C3CC3)c2)csc1-c1ccccc1` [Cpd 20, (3S)-3-cyclopropyl-3-[3-[[4-(5,5-dimethylcyclopenten-1-yl)-5-phenyl-3-thienyl]methoxy]phenyl]propanoic acid], the half-maximal effective concentration (EC50) was 79 nM and 71 nM.

As to `CC1(C)CCC=C1c1c(COc2cccc([C@@H](CC(=O)O)C3CC3)c2)csc1-c1ccsc1` [Cpd 16, (3S)-3-cyclopropyl-3-[3-[[4-(5,5-dimethylcyclopenten-1-yl)-5-(3-thienyl)-3-thienyl]methoxy]phenyl]propanoic acid], the EC50 was 87 nM and 65 nM.

With `COc1ccc(-c2scc(COc3cccc([C@@H](CC(=O)O)C4CC4)c3)c2C2=CCCC2(C)C)c(F)c1` [Cpd 18, (3S)-3-cyclopropyl-3-[3-[[4-(5,5-dimethylcyclopenten-1-yl)-5-(2-fluoro-4-methoxy-phenyl)-3-thienyl]methoxy]phenyl]propanoic acid], the concentration for a half-maximal effect (EC50) is 305 nM and 152 nM.

As for `COc1cc(-c2onc(COc3cccc([C@@H](CC(=O)O)C4CC4)c3)c2OC2CCCCC2)c(F)cn1` [Cpd 48, (3S)-3-[3-[[4-(cyclohexoxy)-5-(5-fluoro-2-methoxy-4-pyridyl)isoxazol-3-yl]methoxy]phenyl]-3-cyclopropyl-propanoic acid], the EC50 was 24 nM and 21 nM.

In the case of `COc1cc(-c2scc(COc3cccc([C@@H](CC(=O)O)C4CC4)c3)c2C2=CCCC2(C)C)c(F)cn1` [Cpd 27, (3S)-3-cyclopropyl-3-[3-[[4-(5,5-dimethylcyclopenten-1-yl)-5-(5-fluoro-2-methoxy-4-pyridyl)-3-thienyl]methoxy]phenyl]propanoic acid], the EC50 is 53 nM and 42 nM.

As to `COc1ccc(F)c(-c2onc(COc3cccc([C@@H](CC(=O)O)C4CC4)c3)c2OCCC(F)(F)F)c1` [Cpd 49, (3S)-3-cyclopropyl-3-[3-[[5-(2-fluoro-5-methoxy-phenyl)-4-(3,3,3-trifluoropropoxy)isoxazol-3-yl]methoxy]phenyl]propanoic acid], the EC50 was 67 nM and 56 nM.

For the molecule `COc1ccc(F)c(-c2onc(COc3cccc([C@@H](CC(=O)O)C4CC4)c3)c2OC2CCCCC2)c1` [Cpd 46, (3S)-3-[3-[[4-(cyclohexoxy)-5-(2-fluoro-5-methoxy-phenyl)isoxazol-3-yl]methoxy]phenyl]-3-cyclopropyl-propanoic acid], the 50% effective concentration (EC50) is 7 nM and 5 nM.

On to `COc1ccc(F)c(-c2onc(COc3cccc([C@@H](CC(=O)O)C4CC4)c3)c2-c2sccc2C)c1` [Cpd 33, (3S)-3-cyclopropyl-3-[3-[[5-(2-fluoro-5-methoxy-phenyl)-4-(3-methyl-2-thienyl)isoxazol-3-yl]methoxy]phenyl]propanoic acid], for which the EC50 is 215 nM and 178 nM.

Take `COc1cncc(-c2scc(COc3cccc([C@@H](CC(=O)O)C4CC4)c3)c2C2=CCCC2(C)C)c1` [Cpd 28, (3S)-3-cyclopropyl-3-[3-[[4-(5,5-dimethylcyclopenten-1-yl)-5-(5-methoxy-3-pyridyl)-3-thienyl]methoxy]phenyl]propanoic acid]: the EC50 is 83 nM and 74 nM.
